Test results published in article PMC8766756, “Insights on Cancer Cell Inhibition, Subcellular Activities, and Kinase Profile of Phenylacetamides Pending 1H-Imidazol-5-One Variants” (Frontiers in Pharmacology, 2022).
Several values for one entry are separate records, joined by “and”; a condition that tells them apart may be missing. Equal entries are not always repeated.

Tests used:
Assay in all cases: PamChip tyrosine kinase microarray
Type in all cases: biochemical
Details in all cases: 0.1 µM, HL60 lysate
Fyn (P06241) = molecular target: T1, Fyn (P06241) (Homo sapiens, UniProt P06241)
T1 construct: purchased PamGene (PamChip PTK array, Upstream Kinase Analysis)
Summary of the method: (§1)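 HL60 (AML) cell lysate was spiked with compound at 0.001, 0.01, 0.1, 1, 10 and 50 µM, or 2% v/v DMSO as control, then profiled in technical replicates on a tyrosine kinase peptide array of 196 phosphosites. Kinase activity was inferred from peptide-set changes using an upstream kinase tool.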

EGFR (P00533) = molecular target: T2, EGFR (P00533) (Homo sapiens, UniProt P00533)
T2 construct: purchased PamGene (PamChip PTK array, Upstream Kinase Analysis)
Summary of the method: as §1

EphA5 (P54756) = molecular target: T3, EphA5 (P54756) (Homo sapiens, UniProt P54756)
T3 construct: purchased PamGene (PamChip PTK array, Upstream Kinase Analysis)
Summary of the method: as §1

TXK (P42681) = molecular target: T4, TXK (P42681) (Homo sapiens, UniProt P42681)
T4 construct: purchased PamGene (PamChip PTK array, Upstream Kinase Analysis)
T4 sequence (P42681 1-527): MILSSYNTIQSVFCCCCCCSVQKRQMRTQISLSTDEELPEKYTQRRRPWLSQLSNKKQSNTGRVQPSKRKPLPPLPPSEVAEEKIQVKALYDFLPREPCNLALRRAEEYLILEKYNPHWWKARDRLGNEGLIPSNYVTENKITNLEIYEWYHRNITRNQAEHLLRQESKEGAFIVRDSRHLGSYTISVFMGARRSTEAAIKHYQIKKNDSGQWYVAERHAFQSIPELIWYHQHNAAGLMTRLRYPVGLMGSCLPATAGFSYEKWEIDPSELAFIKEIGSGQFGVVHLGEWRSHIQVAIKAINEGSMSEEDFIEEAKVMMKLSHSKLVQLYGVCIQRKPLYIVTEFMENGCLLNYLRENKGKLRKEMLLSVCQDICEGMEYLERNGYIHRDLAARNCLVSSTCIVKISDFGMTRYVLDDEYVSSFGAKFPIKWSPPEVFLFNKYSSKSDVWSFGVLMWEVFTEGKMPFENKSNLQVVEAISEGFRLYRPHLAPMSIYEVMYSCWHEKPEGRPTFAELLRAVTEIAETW
Summary of the method: as §1

Fer (P16591) = molecular target: T5, Fer (P16591) (Homo sapiens, UniProt P16591)
T5 construct: purchased PamGene (PamChip PTK array, Upstream Kinase Analysis)
Summary of the method: as §1

ITK (Q08881) = molecular target: T6, ITK (Q08881) (Homo sapiens, UniProt Q08881)
T6 construct: purchased PamGene (PamChip PTK array, Upstream Kinase Analysis)
T6 sequence (Q08881 1-620): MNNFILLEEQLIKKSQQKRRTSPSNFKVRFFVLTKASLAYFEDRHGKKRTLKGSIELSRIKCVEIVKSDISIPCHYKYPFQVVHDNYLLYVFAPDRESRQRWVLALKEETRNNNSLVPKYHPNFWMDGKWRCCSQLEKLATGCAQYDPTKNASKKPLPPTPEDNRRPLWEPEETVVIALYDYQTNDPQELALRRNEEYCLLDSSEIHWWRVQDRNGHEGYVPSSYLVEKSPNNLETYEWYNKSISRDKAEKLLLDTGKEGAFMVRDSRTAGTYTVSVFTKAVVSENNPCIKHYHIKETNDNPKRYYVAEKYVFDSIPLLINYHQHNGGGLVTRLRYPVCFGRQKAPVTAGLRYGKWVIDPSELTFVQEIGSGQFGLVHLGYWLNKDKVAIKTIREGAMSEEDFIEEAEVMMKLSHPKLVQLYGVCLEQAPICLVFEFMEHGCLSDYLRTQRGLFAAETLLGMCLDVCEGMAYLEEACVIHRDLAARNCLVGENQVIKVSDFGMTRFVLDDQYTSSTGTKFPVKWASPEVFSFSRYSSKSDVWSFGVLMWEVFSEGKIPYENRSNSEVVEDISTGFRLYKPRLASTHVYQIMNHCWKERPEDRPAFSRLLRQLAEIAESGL
Summary of the method: as §1

HER4 (Q15303) = molecular target: T7, HER4 (Q15303) (Homo sapiens, UniProt Q15303)
T7 construct: purchased PamGene (PamChip PTK array, Upstream Kinase Analysis)
Summary of the method: as §1

TRKB (Q16620) = molecular target: T8, TRKB (Q16620) (Homo sapiens, UniProt Q16620)
T8 construct: purchased PamGene (PamChip PTK array, Upstream Kinase Analysis)
Summary of the method: as §1

T5 sequence (P16591 whole entry): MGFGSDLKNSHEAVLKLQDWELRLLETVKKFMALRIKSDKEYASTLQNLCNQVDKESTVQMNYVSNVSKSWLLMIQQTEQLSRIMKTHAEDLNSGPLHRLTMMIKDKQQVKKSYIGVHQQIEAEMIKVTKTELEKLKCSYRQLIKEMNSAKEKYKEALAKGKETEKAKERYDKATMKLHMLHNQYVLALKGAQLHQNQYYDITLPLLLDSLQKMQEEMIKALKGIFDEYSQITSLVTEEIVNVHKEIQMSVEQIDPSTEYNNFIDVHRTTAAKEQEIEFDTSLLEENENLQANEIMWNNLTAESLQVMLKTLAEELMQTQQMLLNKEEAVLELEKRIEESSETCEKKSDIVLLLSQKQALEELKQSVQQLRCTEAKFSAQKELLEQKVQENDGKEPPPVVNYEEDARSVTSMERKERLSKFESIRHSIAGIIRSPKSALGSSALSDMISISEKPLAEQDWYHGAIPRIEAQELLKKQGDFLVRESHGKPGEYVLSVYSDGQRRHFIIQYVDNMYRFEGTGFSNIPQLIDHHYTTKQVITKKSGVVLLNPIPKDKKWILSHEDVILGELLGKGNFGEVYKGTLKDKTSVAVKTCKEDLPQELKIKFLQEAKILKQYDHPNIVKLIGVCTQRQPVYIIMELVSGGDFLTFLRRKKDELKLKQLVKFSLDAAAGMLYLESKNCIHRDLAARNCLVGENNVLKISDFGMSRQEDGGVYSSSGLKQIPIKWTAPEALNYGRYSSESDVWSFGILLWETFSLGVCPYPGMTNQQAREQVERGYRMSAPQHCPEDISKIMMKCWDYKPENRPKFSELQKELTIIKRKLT
T3 sequence (P54756 25-1037): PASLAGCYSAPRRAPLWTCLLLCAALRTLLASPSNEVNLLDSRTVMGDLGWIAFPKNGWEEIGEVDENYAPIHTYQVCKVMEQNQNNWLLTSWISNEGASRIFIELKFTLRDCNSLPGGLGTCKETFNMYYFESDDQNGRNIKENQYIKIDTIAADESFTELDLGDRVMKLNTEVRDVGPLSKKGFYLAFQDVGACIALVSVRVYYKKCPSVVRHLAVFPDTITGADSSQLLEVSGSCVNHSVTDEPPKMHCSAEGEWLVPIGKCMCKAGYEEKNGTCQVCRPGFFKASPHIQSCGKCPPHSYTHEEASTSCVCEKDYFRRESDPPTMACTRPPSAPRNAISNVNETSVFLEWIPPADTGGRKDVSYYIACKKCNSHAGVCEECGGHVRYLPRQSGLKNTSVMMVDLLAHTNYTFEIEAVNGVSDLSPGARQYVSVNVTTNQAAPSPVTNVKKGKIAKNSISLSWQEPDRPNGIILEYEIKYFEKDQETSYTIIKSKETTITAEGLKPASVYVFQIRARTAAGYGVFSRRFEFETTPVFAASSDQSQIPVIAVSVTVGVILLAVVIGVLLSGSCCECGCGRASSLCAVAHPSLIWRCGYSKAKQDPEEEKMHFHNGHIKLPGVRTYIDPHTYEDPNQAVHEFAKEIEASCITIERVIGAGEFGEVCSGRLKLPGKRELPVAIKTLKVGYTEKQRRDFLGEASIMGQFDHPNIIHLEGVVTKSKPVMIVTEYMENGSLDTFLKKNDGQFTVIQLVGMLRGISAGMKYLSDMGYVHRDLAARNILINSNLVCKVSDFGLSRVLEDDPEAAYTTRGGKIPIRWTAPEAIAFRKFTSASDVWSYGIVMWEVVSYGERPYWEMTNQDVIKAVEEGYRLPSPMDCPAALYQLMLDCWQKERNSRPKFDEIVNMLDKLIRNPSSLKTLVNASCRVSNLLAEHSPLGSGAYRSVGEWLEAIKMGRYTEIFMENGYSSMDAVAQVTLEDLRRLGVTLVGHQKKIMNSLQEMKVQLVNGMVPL
T8 sequence (Q16620 32-822): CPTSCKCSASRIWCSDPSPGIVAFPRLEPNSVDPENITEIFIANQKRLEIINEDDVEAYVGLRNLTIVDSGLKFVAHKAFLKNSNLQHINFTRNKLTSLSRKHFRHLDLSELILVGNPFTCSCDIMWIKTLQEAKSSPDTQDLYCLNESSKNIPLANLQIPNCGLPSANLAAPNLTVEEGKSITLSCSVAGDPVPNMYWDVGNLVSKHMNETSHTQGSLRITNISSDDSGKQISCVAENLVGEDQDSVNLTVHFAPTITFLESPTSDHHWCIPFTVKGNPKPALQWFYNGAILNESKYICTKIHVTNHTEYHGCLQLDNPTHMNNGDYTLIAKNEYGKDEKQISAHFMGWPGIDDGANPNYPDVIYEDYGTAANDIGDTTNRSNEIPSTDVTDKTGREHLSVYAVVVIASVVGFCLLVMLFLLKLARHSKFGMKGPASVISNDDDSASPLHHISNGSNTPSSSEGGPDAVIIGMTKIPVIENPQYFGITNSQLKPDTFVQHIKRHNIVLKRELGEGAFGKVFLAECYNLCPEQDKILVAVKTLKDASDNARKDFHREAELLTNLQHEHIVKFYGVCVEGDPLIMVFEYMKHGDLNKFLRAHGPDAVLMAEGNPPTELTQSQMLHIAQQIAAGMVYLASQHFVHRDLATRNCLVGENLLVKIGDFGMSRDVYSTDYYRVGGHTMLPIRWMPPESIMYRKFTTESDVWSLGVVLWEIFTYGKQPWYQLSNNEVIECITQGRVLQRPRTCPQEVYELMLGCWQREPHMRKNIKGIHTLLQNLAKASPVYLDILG
T2 sequence (P00533 25-1210): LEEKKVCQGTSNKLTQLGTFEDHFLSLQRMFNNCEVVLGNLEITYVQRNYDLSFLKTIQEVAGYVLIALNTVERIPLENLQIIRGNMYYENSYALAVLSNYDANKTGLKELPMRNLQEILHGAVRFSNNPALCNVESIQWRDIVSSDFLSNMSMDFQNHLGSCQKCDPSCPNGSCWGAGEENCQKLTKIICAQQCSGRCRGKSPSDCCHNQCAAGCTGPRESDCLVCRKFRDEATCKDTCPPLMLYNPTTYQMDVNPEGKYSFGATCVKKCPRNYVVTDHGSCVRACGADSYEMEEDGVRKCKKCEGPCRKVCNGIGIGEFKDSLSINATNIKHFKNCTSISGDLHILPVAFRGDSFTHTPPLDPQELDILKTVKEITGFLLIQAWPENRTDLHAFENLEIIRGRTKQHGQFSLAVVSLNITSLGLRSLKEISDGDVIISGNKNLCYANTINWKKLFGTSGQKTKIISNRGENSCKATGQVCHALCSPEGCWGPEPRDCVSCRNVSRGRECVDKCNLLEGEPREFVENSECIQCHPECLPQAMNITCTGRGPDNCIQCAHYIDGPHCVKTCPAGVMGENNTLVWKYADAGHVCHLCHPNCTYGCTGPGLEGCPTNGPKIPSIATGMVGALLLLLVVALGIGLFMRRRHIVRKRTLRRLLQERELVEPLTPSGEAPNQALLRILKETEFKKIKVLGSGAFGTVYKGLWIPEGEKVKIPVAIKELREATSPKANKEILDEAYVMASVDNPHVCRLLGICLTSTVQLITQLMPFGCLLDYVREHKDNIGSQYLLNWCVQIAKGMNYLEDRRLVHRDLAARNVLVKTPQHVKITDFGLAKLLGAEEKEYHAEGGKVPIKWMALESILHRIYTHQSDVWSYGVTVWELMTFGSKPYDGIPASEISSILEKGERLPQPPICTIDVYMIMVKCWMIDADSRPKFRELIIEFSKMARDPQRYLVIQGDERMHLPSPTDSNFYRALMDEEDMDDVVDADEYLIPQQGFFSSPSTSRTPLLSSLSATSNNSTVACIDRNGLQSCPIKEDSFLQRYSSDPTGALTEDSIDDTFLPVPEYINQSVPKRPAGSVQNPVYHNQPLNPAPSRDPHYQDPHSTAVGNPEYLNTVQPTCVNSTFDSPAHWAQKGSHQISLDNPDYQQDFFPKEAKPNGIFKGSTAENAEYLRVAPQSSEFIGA
T1 sequence (P06241 whole entry): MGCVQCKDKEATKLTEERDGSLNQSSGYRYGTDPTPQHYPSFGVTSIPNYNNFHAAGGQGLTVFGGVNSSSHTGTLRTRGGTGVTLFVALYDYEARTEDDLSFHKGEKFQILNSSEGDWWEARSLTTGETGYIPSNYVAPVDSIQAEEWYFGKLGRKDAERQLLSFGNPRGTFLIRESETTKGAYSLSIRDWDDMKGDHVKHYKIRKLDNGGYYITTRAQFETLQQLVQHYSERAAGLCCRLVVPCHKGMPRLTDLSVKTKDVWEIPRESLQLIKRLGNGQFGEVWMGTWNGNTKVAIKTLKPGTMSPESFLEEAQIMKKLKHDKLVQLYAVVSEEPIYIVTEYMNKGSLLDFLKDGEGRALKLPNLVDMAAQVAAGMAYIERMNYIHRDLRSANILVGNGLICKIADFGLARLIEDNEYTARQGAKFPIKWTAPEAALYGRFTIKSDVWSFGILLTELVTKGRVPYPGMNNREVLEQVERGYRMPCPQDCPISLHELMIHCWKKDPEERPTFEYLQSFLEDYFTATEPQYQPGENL

**Q.** For COc1ccc(/C=C2\N=C(C)N(c3ccc(CC(=O)NCc4ccccc4)cc3)C2=O)cc1 [Compound 4c, (Z)-N-Benzyl-2-(4-(4-(4-methoxybenzylidene)-2-methyl-5-oxo-4,5-dihydro-1H-imidazol-1-yl)phenyl)acetamide], which “Mean Final score (Kinase score)” value (Fyn (P06241)) is on record?
**A.** The value was 2.45.

**Q.** What about the “Mean Kinase Statistic” value (Fyn (P06241)) of the same molecule?
**A.** Its value is -1.236.

**Q.** What about the “Mean Significance Score” value (Fyn (P06241)) of the same molecule?
**A.** Its value is 2.048.

**Q.** And the “Mean Specificity Score” value (Fyn (P06241))?
**A.** Its value is 0.4193.

**Q.** What about the “Mean Final score (Kinase score)” value (EGFR (P00533)) of the same molecule?
**A.** The value was 2.116.

**Q.** What about the “Mean Kinase Statistic” value (EGFR (P00533)) of the same molecule?
**A.** Its value is -1.053.

**Q.** What about the “Mean Significance Score” value (EGFR (P00533)) of the same molecule?
**A.** Its value is 2.048.

**Q.** And the “Mean Specificity Score” value (EGFR (P00533))?
**A.** The value was 0.03887.

**Q.** What about the “Mean Final score (Kinase score)” value (EphA5 (P54756)) of the same molecule?
**A.** Its value is 2.0125.

**Q.** And the “Mean Kinase Statistic” value (EphA5 (P54756))?
**A.** The value was -1.181.

**Q.** And the “Mean Significance Score” value (EphA5 (P54756))?
**A.** The value was 1.675.

**Q.** What about the “Mean Specificity Score” value (EphA5 (P54756)) of the same molecule?
**A.** The value was 0.3238.

**Q.** And the “Mean Significance Score” value (TXK (P42681))?
**A.** Its value is 2.048.

**Q.** And the “Mean Specificity Score” value (TXK (P42681))?
**A.** Its value is 0.6377.

**Q.** What about the “Mean Final score (Kinase score)” value (TXK (P42681); listed as KIM-161) of the same molecule?
**A.** Its value is 2.68.

**Q.** What about the “Mean Final score (Kinase score)” value (Fer (P16591)) of the same molecule?
**A.** The value was 2.491.

**Q.** And the “Mean Kinase Statistic” value (Fer (P16591))?
**A.** Its value is -1.259.

**Q.** And the “Mean Significance Score” value (Fer (P16591))?
**A.** Its value is 2.048.

**Q.** And the “Mean Specificity Score” value (Fer (P16591))?
**A.** The value was 0.455.

**Q.** And the “Mean Significance Score” value (ITK (Q08881))?
**A.** Its value is 2.048.

**Q.** What about the “Mean Specificity Score” value (ITK (Q08881)) of the same molecule?
**A.** The value was 2.074.

**Q.** What about the “Mean Final score (Kinase score)” value (ITK (Q08881); listed as KIM-161) of the same molecule?
**A.** Its value is 3.95 and 3.951.

**Q.** What about the “Mean Final score (Kinase score)” value (HER4 (Q15303)) of the same molecule?
**A.** Its value is 2.227.

**Q.** What about the “Mean Kinase Statistic” value (HER4 (Q15303)) of the same molecule?
**A.** The value was -1.109.

**Q.** What about the “Mean Significance Score” value (HER4 (Q15303)) of the same molecule?
**A.** The value was 2.048.

**Q.** And the “Mean Specificity Score” value (HER4 (Q15303))?
**A.** The value was 0.2042.

**Q.** What about the “Mean Final score (Kinase score)” value (TRKB (Q16620)) of the same molecule?
**A.** Its value is 2.487.

**Q.** And the “Mean Kinase Statistic” value (TRKB (Q16620))?
**A.** The value was -1.25.

**Q.** What about the “Mean Significance Score” value (TRKB (Q16620)) of the same molecule?
**A.** The value was 2.048.

**Q.** And the “Mean Specificity Score” value (TRKB (Q16620))?
**A.** Its value is 0.5169.
